Results taken from patent US20050282818A1, “Ubiquitin ligase inhibitors” (Rigel Pharmaceuticals, Inc., priority 2004, published 2005).

Experiments:
[1] = biological target: APC11/APC2 (Homo sapiens, UniProt Q9NYG5+Q9UJX6); experiment: APC-11/APC-2 ligase assay (APC auto ubiquitination); type: biochemical; settings: APC assay
How it was run: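 His-tagged APC was captured on nickel plates with human E1 (5 ng/well), UbcH5c (20 ng/well), APC (100 ng/well) and Flag-ubiquitin (100 ng/well) in a Tris pH 7.6 reaction buffer containing 2.5 mM ATP, for 1 hour at room temperature. Read-out was anti-Flag/HRP chemiluminescence. IC50 was set against a DMSO control, typically from 6 or 8 concentrations.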

[2] = tested on: ICAM-1 expression in A549 cells; experiment: ICAM assay (IL-1 induced ICAM-1/CD54 expression in A549 cells); type: cell-based, human; settings: Homo sapiens, A549, ICAM assay
How it was run: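 Luminescent immunostaining (anti-CD54, then anti-mouse IgG, 1 h) quantifies ICAM-1 on A549 cells induced 4 h at 37° C by IL-1 (4 μl of 25 ng/ml added). Compound is added 1 h before the cytokine to cells plated overnight at 10,000 per well.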

[3] = biological target: T1, TRAF6/Uev1A/Ubc13 (Homo sapiens, UniProt Q9Y4K3); experiment: TRAF6/Uev1A/Ubc13 plate-based ubiquitin ligase assay; type: biochemical
T1 sequence (Q9Y4K3 1-522): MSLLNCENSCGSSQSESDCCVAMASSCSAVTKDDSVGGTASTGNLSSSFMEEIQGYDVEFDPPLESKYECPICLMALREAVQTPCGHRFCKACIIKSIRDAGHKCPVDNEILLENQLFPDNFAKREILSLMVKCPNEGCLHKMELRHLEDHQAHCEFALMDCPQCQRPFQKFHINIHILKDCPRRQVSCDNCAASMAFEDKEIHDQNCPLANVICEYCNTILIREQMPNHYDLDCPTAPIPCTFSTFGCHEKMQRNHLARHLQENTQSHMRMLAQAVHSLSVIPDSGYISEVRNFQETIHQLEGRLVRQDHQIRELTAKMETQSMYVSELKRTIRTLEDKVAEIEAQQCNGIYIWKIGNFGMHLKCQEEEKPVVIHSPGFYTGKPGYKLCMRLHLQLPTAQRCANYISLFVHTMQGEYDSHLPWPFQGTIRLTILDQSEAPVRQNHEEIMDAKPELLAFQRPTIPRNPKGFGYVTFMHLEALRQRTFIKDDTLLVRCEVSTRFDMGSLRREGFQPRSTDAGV
How it was run: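 Ligase activity was read as luminescence from anti-Flag/HRP detection of Flag-ubiquitin bound to casein-blocked Ni-plates alongside His-ubiquitin after a 1 h room-temperature reaction. Buffer: 62.5 mM Tris pH 7.5, 6.25 mM MgCl2, 1.0 mM DTT, 2 μM ATP; E1, Uev1a/Ubc13 and TRAF6 added last to start. IC50s derived across compound concentrations.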

Chain of APC11/APC2 (Q9NYG5 whole entry): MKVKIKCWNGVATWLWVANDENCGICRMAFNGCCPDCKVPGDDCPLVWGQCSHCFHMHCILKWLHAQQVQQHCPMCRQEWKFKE
Chain of APC11/APC2 (Q9UJX6 whole entry): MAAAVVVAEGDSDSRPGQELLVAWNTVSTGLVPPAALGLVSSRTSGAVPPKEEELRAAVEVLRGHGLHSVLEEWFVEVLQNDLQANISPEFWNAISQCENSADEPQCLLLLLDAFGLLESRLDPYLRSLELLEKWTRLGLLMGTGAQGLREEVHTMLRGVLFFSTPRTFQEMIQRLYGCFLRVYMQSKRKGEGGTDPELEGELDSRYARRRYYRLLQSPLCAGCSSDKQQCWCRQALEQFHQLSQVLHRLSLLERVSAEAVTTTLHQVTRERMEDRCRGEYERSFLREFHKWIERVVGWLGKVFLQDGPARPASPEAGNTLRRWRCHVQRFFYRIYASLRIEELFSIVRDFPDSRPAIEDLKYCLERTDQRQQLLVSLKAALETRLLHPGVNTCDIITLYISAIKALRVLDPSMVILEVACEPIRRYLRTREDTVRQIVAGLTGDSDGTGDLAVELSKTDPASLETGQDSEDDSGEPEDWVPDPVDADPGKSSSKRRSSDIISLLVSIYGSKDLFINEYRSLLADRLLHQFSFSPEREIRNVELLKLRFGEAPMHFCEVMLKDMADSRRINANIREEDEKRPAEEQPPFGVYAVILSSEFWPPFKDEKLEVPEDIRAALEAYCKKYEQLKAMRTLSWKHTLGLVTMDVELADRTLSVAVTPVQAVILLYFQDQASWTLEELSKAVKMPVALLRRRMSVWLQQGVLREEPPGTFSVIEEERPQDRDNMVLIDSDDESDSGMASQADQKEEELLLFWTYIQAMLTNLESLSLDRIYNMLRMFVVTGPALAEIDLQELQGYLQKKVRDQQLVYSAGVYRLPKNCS

| IC50 [1] [µM] | IC50 [2] [µM] | IC50 [3] [µM] | SMILES |
| --- | --- | --- | --- |
| ≥ 20 | ≥ 20 | ≥ 20 | O=[N+]([O-])c1c(N2CCCCC2)cc(-c2cccc(C(F)(F)F)c2)c2nonc12 [compound 429, 7-(3-[trifluoromethyl]phenyl)-4-nitro-5-(piperidin-1-yl)-2,1,3-benzoxadiazole] |
| ≥ 20 | ≥ 20 | ≥ 20 | Oc1ccc2c(c1)cc(Sc1cccc3cccnc13)c1nonc12 [compound 425, 4-(quinolin-8-ylthio)naphtho[2,1-c][1,2,5]oxadiazol-7-ol] |
| 1 to 20 | ≥ 20 | ≥ 20 | O=S(=O)(Nc1ccccc1F)c1ccc(Nc2ccccc2F)c2nonc12 [compound 346, N-(2-fluorophenyl)-7-(2-fluorophenylamino)-2,1,3-benzoxadiazole-4-sulfonamide] |
| 1 to 20 | ≥ 20 | 1 to 20 | O=S(=O)(Nc1cccc(F)c1F)c1ccc(Sc2cccc3ccccc23)c2nonc12 [compound 379, N-(2,3-difluorophenyl)-7-(naphthalen-1-ylthio)-2,1,3-benzoxadiazole-4-sulfonamide] |
| 1 to 20 | 1 to 20 | ≥ 20 | O=[N+]([O-])c1ccc(Nc2ccccc2OC(F)(F)F)c2nonc12 [compound 373] |
| ≥ 20 | < 1 | ≥ 20 | O=C1OC2(CCN(S(=O)(=O)c3c(Cl)ccc4nonc34)CC2)c2ccccc21 [compound 337, 1′-{[5-chloro-(2,1,3-benzoxadiazol-4-yl)]sulfonyl}-3H-spiro[2-benzofuran-1,4′-piperidin]-3-one] |
| 1 to 20 | ≥ 20 | ≥ 20 | CC(C)(C)c1ccc(-c2cc3cc(O)ccc3c3nonc23)cc1 [compound 454] |
| ≥ 20 | ≥ 20 | ≥ 20 | O=[N+]([O-])c1c(N2CCCCC2)cc(-c2cc(F)cc(F)c2)c2nonc12 [compound 428, 7-(3,5-difluorophenyl)-4-nitro-5-(piperidin-1-yl)-2,1,3-benzoxadiazole] |
| ≥ 20 | 1 to 20 | ≥ 20 | COc1ccc(OC)c(NS(=O)(=O)c2ccc(Cl)c3nonc23)c1 [compound 359, 7-chloro-N-(2,5-dimethoxyphenyl)-2,1,3-benzoxadiazole-4-sulfonamide] |
| ≥ 20 | ≥ 20 | ≥ 20 | Fc1cc2nonc2c(N2CCOCC2)c1F [compound 405, 5,6-difluoro-4-(morpholin-4-yl)-2,1,3-benzoxadiazole] |
| 1 to 20 | 1 to 20 | 1 to 20 | O=S(=O)(Nc1cccc2ccccc12)c1c(Cl)cc(Cl)c2nonc12 [compound 416, 5,7-dichloro-N-(naphthalen-1-yl)-2,1,3-benzoxadiazole-4-sulfonamide] |
| ≥ 20 | 1 to 20 | ≥ 20 | Cc1cccc(C(C)C)c1NS(=O)(=O)c1ccc(Cl)c2nonc12 [compound 352, 7-chloro-N-(2-isopropyl-6-methylphenyl)-2,1,3-benzoxadiazole-4-sulfonamide] |
| ≥ 20 | ≥ 20 | ≥ 20 | Cc1ccc(-c2cc3nsnc3cc2F)cc1C [compound 459, 5-(3,4-dimethylphenyl)-6-fluoro-2,1,3-benzthiadiazole] |
| ≥ 20 | ≥ 20 | ≥ 20 | O=S(=O)(Nc1ncccc1OCc1ccccc1)c1ccc(N2CCOCC2)c2nonc12 [compound 382, N-(3-benzyloxypyridin-2-yl)-7-(morpholin-4-yl)-2,1,3-benzoxadiazole-4-sulfonamide] |
| ≥ 20 | 1 to 20 | ≥ 20 | O=S(=O)(Nc1ccccc1OC(F)(F)F)c1ccc(Cl)c2nonc12 [compound 366, 7-chloro-N-(2-[trifluoromethoxy]phenyl)-2,1,3-benzoxadiazole-4-sulfonamide] |
| ≥ 20 | 1 to 20 | ≥ 20 | O=S(=O)(Nc1ccccc1F)c1ccc(Cl)c2nonc12 [compound 345, 7-chloro-N-(2-fluorophenyl)-2,1,3-benzoxadiazole-4-sulfonamide] |
